Measured values taken from patent EP1614683B1, “Indazole compounds and pharmaceutical compositions for inhibiting protein kinases, and methods for their use” (priority 1999, dated 2001).
Where two headings read alike, the source gives them in different places.

Experiments:
[1] = system: human umbilical vein endothelial cells (HUVEC); assay: HUVEC proliferation assay (VEGF-stimulated, MTT); type: cell-based; details: Homo sapiens, HUVEC, Table 1; + albumin; read-out: HUVEC + albumin IC50
Method: This assay determines the ability of a test compound to inhibit the growth factor-stimulated proliferation of human umbilical vein endothelial cells ("HUVEC"). HUVEC cells (passage 3-4, Clonetics, Corp.) were thawed into EGM2 culture medium (Clonetics Corp) in T75 flasks. Fresh EGM2 medium was added to the flasks 24 hours later. Four or five days later, cells were exposed to another culture medium (F12K medium supplemented with 10% fetal bovine serum (FBS), 60 µg/mL endothelial cell growth supplement (ECGS), and 0.1 mg/mL heparin). Exponentially-growing HUVEC cells were used in experiments thereafter. Ten to twelve thousand HUVEC cells were plated in 96-well dishes in 100 µl of rich, culture medium (described above). The cells were allowed to attach for 24 hours in this medium. The medium was then removed by aspiration and 105 µl of starvation media (F12K+1% FBS) was added to each well. After 24 hours, 15 µl of test agent dissolved in 1% DMSO in starvation medium or this vehicle alone was added into each treatment well; the final DMSO concentration was 0.1%. One hour later, 30 µl of VEGF (30 ng/mL) in starvation media was added to all wells except those containing untreated controls; the final VEGF concentration was 6 ng/mL. Cellular proliferation was quantified 72 hours later by MTT dye reduction, at which time cells were exposed for 4 hours MTT (Promega Corp.).

[2] = biological target: LCK tyrosine kinase (Homo sapiens, UniProt P06239, C224D/P223M); assay: LCK spectrophotometric assay; type: biochemical; details: Table 1; compound concentration 1 µM; read-out: Lck-P* (% inhibition)
Method: The spectrophotometric assay was carried out as described above for VEGF-R2, except for the following changes in concentration: LCK = 60 nM, MgCl2 = 0 mM, poly(E4Y1) = 20 mM.

[3] = biological target: human FGF-R1 (Homo sapiens, UniProt P11362, C488A/C584S/L457V); assay: FGF-R spectrophotometric assay; type: biochemical; details: read-out: FGF-P* (% inhibition)
Method: The spectrophotometric assay was carried out as described above for VEGF-R2, except for the following changes in concentration: FGF-R = 50 nM, ATP = 2 mM, and poly(E4Y1) =15 mM.

[4] = biological target: unphosphorylated VEGF-R2Δ50 (Homo sapiens, UniProt P35968, DEL940-989/E990V); assay: biochemical; details: for inhibition at 0.05 µM: read-out: FLVK ** (% inhibition)
[5] = Table 1, compound concentration 1 µM

human FGF-R1, sequence (P11362 456-766 L457V/C488A/C584S): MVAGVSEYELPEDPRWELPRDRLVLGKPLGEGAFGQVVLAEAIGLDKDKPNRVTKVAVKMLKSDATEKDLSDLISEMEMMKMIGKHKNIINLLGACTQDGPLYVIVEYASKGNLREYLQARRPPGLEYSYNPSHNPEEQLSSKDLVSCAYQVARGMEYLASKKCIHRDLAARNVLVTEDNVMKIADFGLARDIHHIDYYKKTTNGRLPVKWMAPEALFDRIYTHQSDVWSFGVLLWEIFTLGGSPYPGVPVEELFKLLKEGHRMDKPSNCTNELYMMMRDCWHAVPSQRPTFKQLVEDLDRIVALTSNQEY
LCK tyrosine kinase, sequence (P06239 223-509 P223M/C224D): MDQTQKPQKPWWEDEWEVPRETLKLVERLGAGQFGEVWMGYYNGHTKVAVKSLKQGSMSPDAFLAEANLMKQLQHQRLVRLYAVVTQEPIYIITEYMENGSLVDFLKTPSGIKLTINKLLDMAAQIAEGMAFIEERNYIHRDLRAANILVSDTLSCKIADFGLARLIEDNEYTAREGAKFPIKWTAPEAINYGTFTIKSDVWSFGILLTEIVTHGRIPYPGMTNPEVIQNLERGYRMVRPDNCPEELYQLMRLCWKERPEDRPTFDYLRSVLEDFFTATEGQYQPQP
unphosphorylated VEGF-R2Δ50, sequence (P35968 with tags, fused parts or gaps DEL940-989/E990V limits assumed): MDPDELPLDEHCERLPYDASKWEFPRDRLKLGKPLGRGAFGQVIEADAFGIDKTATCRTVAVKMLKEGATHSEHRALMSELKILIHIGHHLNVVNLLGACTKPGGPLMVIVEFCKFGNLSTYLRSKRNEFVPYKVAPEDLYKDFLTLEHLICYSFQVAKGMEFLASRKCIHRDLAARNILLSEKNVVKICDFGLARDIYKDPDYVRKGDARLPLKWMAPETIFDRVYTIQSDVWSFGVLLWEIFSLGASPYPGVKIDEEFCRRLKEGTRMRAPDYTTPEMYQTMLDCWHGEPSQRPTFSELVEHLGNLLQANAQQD

SMILES	IC50 [1] [nM]	inhibition at 1 µM [2] [%]	inhibition at 1 µM [3, 5] [%]	inhibition at 0.05 µM [4] [%]	inhibition at 1 µM ([4]; read-out: FLVK ** (% inhibition, cell marked *)) [%]	inhibition at 1 µM [3] [%]
Cn1ccnc1/C=N/NC(=O)c1ccccc1Sc1ccc2c(/C=C/c3ccccn3)n[nH]c2c1 [Reference Example 36(a)]	19	19	38	87		
O=C(N[C@@H]1C[C@H]1c1ccccc1)c1ccccc1Sc1ccc2c(/C=C/c3ccccn3)n[nH]c2c1 (racemic) [Reference Example 34]	15	78	95	97		
CCc1cc(C(=O)Nc2cc(C(=O)c3ccc4c(/C=C/c5ccccn5)n[nH]c4c3)ccc2C)n(C)n1 [Reference Example 41(jj), 6-[3-((3-Ethyl-1-methyl-1H-pyrazol-5-yl)carboxamido)-4. methylbenzoyl]-3-E-[2-(pyridin-2-yl)ethenyl]-1H-indazole]	21	19	81	87		
CCc1cc(C(=O)Nc2cccc(C(=O)c3ccc4c(/C=C/c5ccccn5)n[nH]c4c3)c2)n(C)n1 [Reference Example 41(v), 6-[3-((3-Ethyl-1-methyl-1H-pyrazol-5-yl)carboxamido)benzoyl]-3-E-[2-(pyridin-2-yl)ethenyl)-1H-indazole]	12	52	68		68	
Cc1ccccc1C(=O)NNC(=O)c1ccccc1Sc1ccc2c(/C=C/c3ccccn3)n[nH]c2c1 [Reference Example 35(q), 6-[2-((2-Methylphenylhydrazido)carbonyl)phenylsulfanyl]-3-E-[2-(pyridin-2-yl)ethenyl]-1H-indazole]	18	42	51	92		
CN(O)C(=O)c1ccccc1Sc1ccc2c(/C=C/c3ccccn3)n[nH]c2c1 [Reference Example 35(o), 6-[2-(N-Hydroxy-N-methylcarbamoyl)phenylsufanyl]-3-E-[2-(pyridin-2-yl)ethenyl]-1H-indazole]		17	44	39		
O=C(Nc1cccc(C(=O)c2ccc3c(/C=C/c4ccccn4)n[nH]c3c2)c1)c1ccnc(Cl)c1 [Reference Example 41(w), 6-[3-((2-chloropyridin-4-yl)carboxamido)benzoyl]-3-E-[2-(pyridin-2-yl)ethenyl]-1H-indazole]	~10	49	67	97		
CC(=O)Nc1cc(C(=O)c2ccc3c(/C=C/c4ccccn4)n[nH]c3c2)c(C)cc1C [Reference Example 41(nn), 6-(5-acetamido-2,4-dimethylbenzoyl)-3-E-[2-(pyridin-2-yl)ethenyl]-1H-indazole]		7	91	57		
Cc1cc(C(=O)Nc2cc(C(=O)c3ccc4c(/C=C/c5ccccn5)n[nH]c4c3)ccc2C)n(C)n1 [Reference Example 41(hh), 6-[3-((1,3-Dimethyl-1H-pyrazol-5-yl)carboxamido)-4-methylbenzoyl]-3-E-[2-(pyridin-2-yl)ethenyl]-1H-indazole]	3.9	13	74	98		
O=C(NC1CC1)c1cccc(F)c1Sc1ccc2c(/C=C/c3ccccn3)n[nH]c2c1 [Reference Example 37(b), 6-[6-Fluoro-2-(cyclopropylcarbamoyl)phenylsulfanyl]-3-E-[2-(pyridin-2-yl)ethenyl]-1H-indazole]	30 to 100	8	36	48		
O=C(NCCc1cccs1)c1ccccc1Sc1ccc2c(/C=C/c3ccccn3)n[nH]c2c1 [Reference Example 35(hh), 6-[2-(2-(Thien-2-yl)ethylcarbamoyl)phenylsulfanyl]-3-E-[2-(pyridin-2-yl)ethenyl]-1H-indazole]	7	34	73	100		
Cc1cc(C(=O)Nc2cc(Nc3ccc4c(/C=C/c5ccccn5)n[nH]c4c3)c(F)cc2C)n(C)n1 [Example 48(b), 6-[N-(5-((1,3-Dimethyl-1H-pyrazol-5-yl)carboxamido)-2-fluoro-4-methylphenyl)amino]-3-E-[2-(pyridin-2-yl)ethenyl]-1H-indazole]		6	77	97		
CC(C)COC(=O)Nc1cccc(C(=O)c2ccc3c(/C=C/c4ccccn4)n[nH]c3c2)c1 [Reference Example 41(y)]	30 to 100	61	86	98		
O=C(Nc1cccc(C(=O)c2ccc3c(/C=C/c4ccccn4)n[nH]c3c2)c1)Oc1ccccc1 [Reference Example 41(cc), 6-[3-(phenoxyamido)benzoyl]-3-E-[2-(pyridin-2-yl)ethenyl]-1H-indazole]		41		97		95
O=C(NCc1ccncc1)c1ccccc1Sc1ccc2c(/C=C/c3ccccn3)n[nH]c2c1 [Reference Example 35(p), 6-[2-((Pyrid-4-yl)methylcarbamoyl)phenylsulfanyl]-3-E-[2-(pyridin-2-yl)ethenyl]-1H-indazole]		5	11	62		
O=C(c1cccc(NC(=O)c2cc(Cl)ccn2)c1)c1ccc2c(/C=C/c3ccccn3)n[nH]c2c1 [Reference Example 41(z), 6-[3-((4-chloropyridin-2-yl)carboxamido)benzoyl]-3-E-[2-(pyridin-2-yl)ethenyl]-1H-indazole]	7.5	54	74	100		
CC(C)NC(=O)c1ccccc1Sc1ccc2c(/C=C/c3ccccn3)n[nH]c2c1 [Reference Example 35(b), 6-[2-(i-Propylcarbamoyl)phenylsulfanyl]-3-E-[2-(pyridin-2-yl)ethenyl]-1H-indazole]	35	12	59	49		
Cc1cc(C)c(C(=O)c2ccc3c(/C=C/c4ccccn4)n[nH]c3c2)cc1N [Reference Example 40(c), 6-(5-Amino-2,4-dimethyl-benzoyl)-3-E-[2-(pyridin-2-yl)ethenyl]-1H-indazole]		28	59	24		
